Source: PubChem BioAssay (NCI)
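In this assay, cells in 96-well plates receive the compound at five concentrations for 48 hours. Endpoints are linearly interpolated between the surrounding concentrations. GI50 is the concentration that inhibits growth by half. The concentration for full growth arrest is given as TGI.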

Tests used:
Experiment in all cases: inhibition of tumour cell growth, NCI panel, 48 h
[1] = test system: SK-MEL-5 melanoma
[2] = test system: RPMI-8226 leukemia
[3] = test system: RXF 393 renal
[4] = test system: KM12 colon
[5] = test system: NCI-H460 lung
[6] = test system: NCI-H226 lung
[7] = test system: HL-60(TB) leukemia
[8] = test system: MCF7 breast
[9] = test system: PC-3 prostate
[10] = test system: MDA-MB-231 breast

Structure (SMILES) | TGI [1] [µM] | TGI [2] [µM] | TGI [3] [µM] | TGI [4] [µM] | TGI [5] [µM] | TGI [6] [µM] | TGI [7] [µM] | GI50 [1] [µM] | GI50 [2] [µM] | GI50 [4] [µM] | GI50 [5] [µM] | GI50 [6] [µM] | GI50 [7] [µM] | GI50 [8] [µM] | TGI [8] [µM] | GI50 [9] [µM] | TGI [9] [µM] | GI50 [10] [µM] | TGI [10] [µM] | GI50 [3] [µM]
O=C1[C@@H]2C3c4ccccc4C([C@@H]2C(=O)N1c1ccccc1)S3(=O)=O | > 100 | > 100 | > 100 | > 100 | > 100 | > 100 | > 100 |  |  |  |  |  |  |  |  |  |  |  |  | 
COC(=O)[C@]1(C)CCCC2(C)C1CC[C@H]1C=C(C)[C@H]3CCC12C3 (stereo partly specified) | > 100 | > 100 | > 100 | > 100 | > 100 | > 100 | > 100 |  |  |  |  |  |  |  |  |  |  |  |  | 
COc1cccc(/C=N/[N-]C(=O)c2ccncc2)c1[O-].[Cu+2].[OH3+] | > 100 | > 100 |  | > 100 | > 100 | > 100 | 53.7 | 74.3 | > 100 | > 100 | 28.7 | > 100 | 23 |  |  |  |  |  |  | 
O=C1CC(C[C@H](O)C2CCCCC2O)CC(=O)N1Cc1ccccc1 (stereo partly specified) | > 100 |  | > 100 | > 100 | > 100 | > 100 | > 100 |  |  |  |  |  |  |  |  |  |  |  |  | 
O=C1c2ccccc2C2(O)c3cc4ccccc4cc3OC12O (stereo unspecified) | 86.9 | > 100 | 97.6 | > 100 | > 100 | > 100 |  |  |  |  |  |  |  |  |  |  |  |  |  | 
CC(=O)n1c2c(c(=O)n1-c1ccccc1)S(=O)CCC2 (stereo unspecified) | > 100 | 27.9 | > 68.4 | > 100 | > 100 | > 100 | > 70 |  |  |  |  |  |  |  |  |  |  |  |  | 
CC1=C2CCCC2=C/C(=N/Nc2ccc([N+](=O)[O-])cc2[N+](=O)[O-])CC1 | > 100 | > 100 | > 100 | > 100 | > 100 | > 100 | > 100 |  |  |  |  |  |  |  |  |  |  |  |  | 
O=[N+]([O-])c1ccc(-n2nnc(C3=NCCN3)c2-c2ccc(Cl)cc2)cc1 | > 100 | > 100 | > 100 | > 100 | > 100 | > 100 | > 100 |  |  |  |  |  |  |  |  |  |  |  |  | 
O=c1n(-c2ccccc2)c(=O)n2n1C1C=CC2C2C(C1)C2(Cl)Cl (stereo unspecified) | > 100 |  | > 100 | > 100 | > 100 | > 100 | > 100 |  |  |  |  |  |  |  |  |  |  |  |  | 
O=C(O)CSc1n[nH]c(-c2ccccc2)n1 | > 100 | > 100 | > 100 | > 100 | > 100 | > 100 | > 100 |  |  |  |  |  |  |  |  |  |  |  |  | 
COC1[C@@H](OC(C)=O)[C@@H](NC(=O)C(Cl)(Cl)Cl)C(I)[C@@H](N2C(=O)c3ccccc3C2=O)[C@H]1OC (stereo partly specified) | > 100 | > 100 | > 100 | > 100 | > 100 | > 100 | > 100 |  |  |  |  |  |  |  |  |  |  |  |  | 
CCc1c(OC(C)=O)c2c(NC3OC(COC(C)=O)C(OC(C)=O)C(OC(C)=O)C3OC(C)=O)nc(OC)nc2oc1=O (stereo unspecified) | > 100 | > 100 | > 100 | > 100 | > 100 | > 100 | > 100 |  |  |  |  |  |  |  |  |  |  |  |  | 
Cc1c(Cl)cccc1N1C(=O)C(Cl)=C(Cl)C1=O | > 100 | > 89.8 | 97.2 | > 100 | > 100 | > 100 |  |  |  |  |  |  |  |  |  |  |  |  |  | 
Cc1ccc(Cn2c(C)nc3c2C(=O)c2ccccc2C3=O)cc1 | 19.5 |  | 28.7 | > 100 | 3.13 | 33.7 | 41 |  |  |  |  |  |  |  |  |  |  |  |  | 
CCC1C2C=CC(CC2)N1S(=O)(=O)c1ccc(C)cc1 (stereo unspecified) | 36.1 | 42.3 |  | > 100 | 52.1 | 33.9 | 19.5 |  |  |  |  |  |  |  |  |  |  |  |  | 
O=C(N/N=C1/C(=O)N(c2ccc(Cl)cc2Cl)C(=O)C(=O)C1c1nc2ccccc2o1)c1ccccc1O (stereo unspecified) | 40.2 | > 100 |  | > 100 | > 100 | > 100 |  |  |  |  |  |  |  |  |  |  |  |  |  | 
COc1ccc(/C(=N\NC(=O)C(N)=O)C(c2ccc(OC)cc2)C2(O)C(=O)Nc3c(Cl)cccc32)cc1 (stereo unspecified) | > 100 | > 100 | > 100 | > 100 | > 100 | > 100 | > 100 |  |  |  |  |  |  |  |  |  |  |  |  | 
CCOC(=O)C(C)(C)Oc1ccc2c(C)c(-c3ccc(Cl)cc3)c(=O)oc2c1 | 35 | > 100 | > 100 |  | > 100 | 80.6 | > 100 |  |  |  |  |  |  |  |  |  |  |  |  | 
CC(C)=CCc1cc(O)cc2c1OC(C=C(C)C)C1=C2C(=O)C2=C(NCCS2(=O)=O)C1=O (stereo unspecified) | 2.88 | 14 | 4.7 | > 16.7 | 4.28 | 5.34 |  | 0.751 | 4.42 | 4.29 | 1.2 | 2.06 |  | 1.21 | 4.92 | 4.14 | > 16.7 | 0.527 | 5.09 | 2.15
CC(=O)O[C@H]1CCC2[C@@H]3CCC4=C(O)c5nocc5C[C@]4(C)C3CC[C@@]21C (stereo partly specified) | > 100 | > 100 | > 100 | > 100 | > 100 | > 100 |  |  |  |  |  |  |  |  |  |  |  |  |  | 
O=C(NC(=O)c1cn(CCNCCO)c(=O)[nH]c1=O)OCc1ccccc1 | > 100 | > 100 | > 100 | > 100 | > 100 | > 100 | > 100 |  |  |  |  |  |  |  |  |  |  |  |  | 
COc1ccc(-c2cc(-c3ccccc3)c(C#N)c(=O)n2C2OC(CO)C(O)C(O)C2O)cc1 (stereo unspecified) | > 100 | > 100 | > 100 | > 100 | > 100 | > 100 | > 100 |  |  |  |  |  |  |  |  |  |  |  |  | 
CCN(CC)CCOc1ccc(/C=C2\CC3C4CC=C5C[C@@H](O)CC[C@]5(C)C4CC[C@]3(C)C2=O)cc1OC (stereo partly specified) | 22.6 |  | 21.5 | 13.8 | > 53 | 8.77 | 22.3 | 6.58 |  | 3.34 | 5.42 | 2.77 | 10.1 | 9.6 | 54.5 | 3.48 | > 39.1 | 2.31 | 7.38 | 5.64
C=CCCCCCCCCCCC1(O)C=CC2=[N+](CCCCCN=C(N)N)CCCN21 (stereo unspecified) | 25.1 | 29.5 | 19.3 | 18.7 | 19.9 | 21 |  | 9.93 | 2.61 | 3.42 | 4.38 | 3.86 |  | 12.3 | 40.8 | 0.466 | 6.39 | 9.98 | 30.2 | 3.19
